Literature values as cited in US20240180871A1, “MODIFIED-RELEASE SILODOSIN COMPOSITIONS AND USE THEREOF IN METHODS FOR MALE CONTRACEPTION” (PHARMAJOR INCORPORATED, priority 2022, published 2024).
Where two headings read alike, the source gives them in different places.

For `C[C@H](Cc1cc2c(c(C(N)=O)c1)N(CCCO)CC2)NCCOc1ccccc1OCC(F)(F)F` [(R)-silodosin, (−)-(R)-1-(3-hydroxypropyl)-5-[2-[[2-[2-(2,2,2-trifluoroethoxy)phenoxy]ethyl]amino]propyl]indoline-7-carboxamide], the solubility (in acetic acid) is given as “very soluble”, the solubility (in alcohol) is given as “freely soluble” and the solubility (in water) is given as “very slightly soluble”.
For `CC(Cc1cc2c(c(C(N)=O)c1)N(CCCO)CC2)NCCOc1ccccc1OCC(F)(F)F` (centres unmarked) [silodosin, 1-(3-hydroxypropyl)-5-[2-[[2-[2-(2,2,2-trifluoroethoxy)phenoxy]ethyl]amino]propyl]indoline-7-carboxamide], the “effect on semen in male subjects” value (male subjects; during BPH treatment, in some cases, KOBAYASHI 2009, SAKATA 2012) is given as “causing aspermia, azoospermia, or severe oligozoospermia” and the “sex-related adverse effects associated with administration” value (male subjects; known in the art) is given as “discomfort upon ejaculation, decrease in the quality of orgasm, decrease in erectile function, and reduction of sexual desire”.
